From patent US4059586A, “5-Alkoxy-2-alkyl-1,2,3,4-tetrahydroisoquinolene-8-carboxaldehyde and derivatives” (Marion Laboratories, Inc., priority 1976, dated 1977)

Experiments:
[1] = ALD50 in mice (acute toxicity, i.p.); details: mouse, in vivo, ip
Method: (§1) 5-hydroxy-2-methyl-7,8-cyclopentano[h]-1,2,3,4-tetrahydroisoquinoline has an ALD50 in mice of 100-150 mg/kg i.p. When administered as the base at 50 mg/kg i.p. to hypertensive rats the following percent change in systolic blood pressure was observed: […]

hypertensive rats = test: percent change in systolic blood pressure in hypertensive rats; assay type: in vivo; details: base at 50 mg/kg i.p.
Method: as §1

CN1CCc2c(O)cc3c(c2C1)CCC3 [5-hydroxy-2-methyl-7,8-cyclopentano[h]-1,2,3,4-tetrahydroisoquinoline]
LD50 [1]: 100 to 150 mg/kg | percent change in systolic blood pressure (hypertensive rats; 1 hour): -18.9% | percent change in systolic blood pressure (hypertensive rats; 2 hours): -13.6% | percent change in systolic blood pressure (hypertensive rats; 4 hours): -11.2% | percent change in systolic blood pressure (hypertensive rats; 24 hours): -4.7%
